Each molecule was assayed against T1, transmembrane allosteric modulatory sites of mGluR5 receptors in cortical membranes (Rattus norvegicus, UniProt P31424) (assay: [^3H]-MPEP binding assay in rat cortical membranes). Details: read-out: mGluR5_M_MPEP_r_CTX_IC50.
T1 construct: from tissue; host or cells: rat brain cortex membranes
Method: Male Sprague-Dawley rats (200-250 g) are decapitated and their brains are removed rapidly. The cortex is dissected and homogenized in 20 volumes of ice-cold 0.32 M sucrose using a glass-Teflon homogenizer. The homogenate is centrifuged at 1000×g for 10 minutes. The pellet is discarded and the supernatant centrifuged at 20,000×g for 20 minutes. The resulting pellet is re-suspended in 20 volumes of distilled water and centrifuged for 20 minutes at 8000×g. Then the supernatant and the buffy coat are centrifuged at 48,000×g for 20 minutes in the presence of 50 mM Tris-HCl, pH 8.0. The pellet is then re-suspended and centrifuged two to three more times at 48,000×g for 20 minutes in the presence of 50 mM Tris-HCl, pH 8.0. All centrifugation steps are carried out at 4° C. After resuspension in 5 volumes of 50 mM Tris-HCl, pH 8.0 the membrane suspension is frozen rapidly at −80° C.
On the day of assay the membranes are thawed and washed four times by resuspension in 50 mM Tris-HCl, pH 8.0 and centrifugation at 48,000×g for 20 minutes and finally re-suspended in 50 mM Tris-HCl, pH 7.4. The amount of protein in the final membrane preparation (500-700 μg/ml) is determined according to the method of Lowry (Lowry O. H. et al. 1951. J. Biol. Chem. 193, 256-275).
Alternatively, assays are performed with [^3H]-MMPEP (2-(3-methoxyphenylethynyl)-6-methylpyridine hydrochloride) as radioligand. The incubations are continued at room temperature for 60 minutes (equilibrium is achieved under the conditions used). […] Incubations are terminated using a Millipore filter system. The samples are rinsed twice with 4 ml of ice-cold assay buffer over glass fibre filters (Schleicher & Schuell, Germany) under a constant vacuum. Following separation and rinse, the filters are placed into scintillation liquid (5 ml Ultima Gold, Perkin Elmer, Germany) and radioactivity retained on the filters is determined with a conventional liquid scintillation counter (Canberra Packard, Germany).

T1 sequence (P31424 21-1203): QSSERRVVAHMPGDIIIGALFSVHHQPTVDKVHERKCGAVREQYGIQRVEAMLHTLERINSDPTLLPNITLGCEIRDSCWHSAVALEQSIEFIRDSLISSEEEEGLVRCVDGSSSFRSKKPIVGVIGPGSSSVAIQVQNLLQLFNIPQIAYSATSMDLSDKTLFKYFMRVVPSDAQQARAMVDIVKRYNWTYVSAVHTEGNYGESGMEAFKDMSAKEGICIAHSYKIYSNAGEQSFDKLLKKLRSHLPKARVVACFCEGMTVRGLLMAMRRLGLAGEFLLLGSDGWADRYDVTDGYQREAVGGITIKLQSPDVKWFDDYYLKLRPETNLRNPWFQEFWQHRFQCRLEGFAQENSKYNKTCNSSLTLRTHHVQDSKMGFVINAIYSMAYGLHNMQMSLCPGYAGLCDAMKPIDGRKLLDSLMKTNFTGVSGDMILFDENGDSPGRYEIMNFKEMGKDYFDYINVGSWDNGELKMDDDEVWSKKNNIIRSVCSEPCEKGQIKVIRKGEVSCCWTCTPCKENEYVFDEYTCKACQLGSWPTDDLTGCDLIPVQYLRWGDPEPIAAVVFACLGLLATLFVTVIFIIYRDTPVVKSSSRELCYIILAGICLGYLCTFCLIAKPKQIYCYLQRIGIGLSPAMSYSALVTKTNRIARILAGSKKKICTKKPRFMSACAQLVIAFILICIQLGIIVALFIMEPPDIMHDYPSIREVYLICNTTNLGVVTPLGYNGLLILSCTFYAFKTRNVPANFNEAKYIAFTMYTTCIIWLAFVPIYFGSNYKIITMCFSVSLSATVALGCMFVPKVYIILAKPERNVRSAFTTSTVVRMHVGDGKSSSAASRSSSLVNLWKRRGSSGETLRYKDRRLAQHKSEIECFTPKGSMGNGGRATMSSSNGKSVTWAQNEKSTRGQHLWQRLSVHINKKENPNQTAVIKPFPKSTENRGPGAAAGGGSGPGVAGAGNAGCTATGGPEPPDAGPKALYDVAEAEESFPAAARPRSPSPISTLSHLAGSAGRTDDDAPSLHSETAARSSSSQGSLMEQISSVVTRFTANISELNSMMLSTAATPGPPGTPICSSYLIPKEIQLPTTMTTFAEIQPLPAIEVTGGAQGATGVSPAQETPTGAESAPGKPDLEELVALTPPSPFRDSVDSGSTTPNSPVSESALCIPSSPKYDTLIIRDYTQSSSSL

| IC50 | SMILES |
| --- | --- |
| 60 nM | COc1cc2c(cc1O)CCN(C(=O)c1cc3ncc(Br)cn3n1)C2C (stereo not drawn) [drawing 453, 2-[(6-bromopyrazolo[1,5-a]pyrimidin-2-yl)carbonyl]-7-methoxy-1-methyl-1,2,3,4-tetrahydro-6-isoquinolinol] |

Each molecule was assayed against metabotropic glutamate receptor (mGluR5) (Homo sapiens, UniProt P41594) (assay: Cytosolic calcium studies with stably transfected cells (FLIPR)). Details: CHO-K1 cells expressing human mGluR5; agonist L-quisqualic acid; read-out: mGluR5_FLIPR_h_CHO_NAM IC50.
metabotropic glutamate receptor (mGluR5), sequence (P41594 21-1212): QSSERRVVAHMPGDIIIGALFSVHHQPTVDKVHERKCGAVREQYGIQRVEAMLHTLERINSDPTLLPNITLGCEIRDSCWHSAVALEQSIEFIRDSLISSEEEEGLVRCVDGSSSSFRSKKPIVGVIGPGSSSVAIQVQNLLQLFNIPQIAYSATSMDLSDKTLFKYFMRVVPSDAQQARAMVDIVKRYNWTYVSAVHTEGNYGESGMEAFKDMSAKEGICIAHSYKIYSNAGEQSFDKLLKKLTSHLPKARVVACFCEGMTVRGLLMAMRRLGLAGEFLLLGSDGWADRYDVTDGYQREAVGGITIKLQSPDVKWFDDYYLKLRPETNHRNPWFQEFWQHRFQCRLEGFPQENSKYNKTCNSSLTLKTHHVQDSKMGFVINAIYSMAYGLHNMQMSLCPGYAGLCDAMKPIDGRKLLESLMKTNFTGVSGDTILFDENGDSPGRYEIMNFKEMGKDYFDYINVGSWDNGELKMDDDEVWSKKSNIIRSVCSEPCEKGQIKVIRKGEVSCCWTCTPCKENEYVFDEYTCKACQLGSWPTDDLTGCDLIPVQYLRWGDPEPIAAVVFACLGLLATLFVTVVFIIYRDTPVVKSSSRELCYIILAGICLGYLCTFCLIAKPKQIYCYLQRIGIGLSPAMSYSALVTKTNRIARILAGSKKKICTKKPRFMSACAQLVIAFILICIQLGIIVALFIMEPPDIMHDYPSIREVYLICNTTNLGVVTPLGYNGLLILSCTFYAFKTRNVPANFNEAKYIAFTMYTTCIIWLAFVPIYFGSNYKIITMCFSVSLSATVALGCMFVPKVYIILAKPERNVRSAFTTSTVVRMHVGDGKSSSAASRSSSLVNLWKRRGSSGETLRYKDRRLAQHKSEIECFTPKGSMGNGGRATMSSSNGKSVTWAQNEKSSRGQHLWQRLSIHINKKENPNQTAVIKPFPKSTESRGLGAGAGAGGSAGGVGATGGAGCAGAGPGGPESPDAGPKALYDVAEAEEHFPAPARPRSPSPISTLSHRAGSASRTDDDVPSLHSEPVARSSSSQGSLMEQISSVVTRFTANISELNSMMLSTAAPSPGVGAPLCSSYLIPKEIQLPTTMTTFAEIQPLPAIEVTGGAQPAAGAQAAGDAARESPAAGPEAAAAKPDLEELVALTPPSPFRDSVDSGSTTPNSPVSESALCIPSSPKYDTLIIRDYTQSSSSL
Assay type: cell-based
Set-up: expressed in transfected cells; host or cells: CHO-K1 cells, IPTG-inducible expression
Method: Cytosolic Calcium Studies with Stably Transfected Cells:
Chinese hamster ovary cells (CHO-K1 cells), stably transfected for inducible expression of a human metabotropic glutamate receptor mGluR5, are seeded into black clear bottom 96 well plates at a density of 35.000 cells per well. The standard growth medium used (Dulbecco's modified Eagle Medium, DMEM plus L-proline) contains the appropriate inducer isopropyl-β-D-thiogalactopyranosid (IPTG) to achieve optimal receptor expression. One day after seeding the growth medium is exchanged for reconstituted Ca-Kit (Molecular Devices, USA) and incubated for one hour. Ca-Kit is reconstituted in an assay buffer containing 20 mM HEPES pH 7.4, glutamic-pyruvate transaminase, pyridoxal phosphate and sodium pyruvate in Hank's balanced salt solution (HBBS). Agonistic compounds to the receptor elicit increases in cytosolic calcium which can be measured as increases in fluorescence signals by use of a fluorescence imaging plate reader (Molecular Devices).
(§1) The fluorescence signal increase after addition of agonist reflects the increase of cytosolic calcium. Inconsistencies in the amount of cells per well are normalised by using the spatial uniformity correction of the FLIPR software. The mean of replicated temporal data (n=3-5) is calculated and used for graphical representation. For the evaluation of the pharmacology, the calcium changes in response to different concentrations of agonist or antagonist are determined using a maximum minus minimum (MaxMin) calculation.
(§2) All responses (RFU-values) are determined as percentage of control (=maximum response). EC50 and IC50 are calculated according the logistic equation using GraFit 5.0 (Erithacus Software, GB) or Prism 4.0 (GraphPad Software, USA).

| IC50 | SMILES |
| --- | --- |
| 267 nM | COc1cc2c(cc1O)CCN(C(=O)c1cc3ncc(Br)cn3n1)C2C (stereo not drawn) [Example 1, (6-Bromo-pyrazolo[1,5-a]pyrimidin-2-yl)-(6-hydroxy-7-methoxy-1-methyl-3,4-dihydro-1H-isoquinolin-2-yl)-methanone] |
| 43.8 nM | CC1c2cc(F)ccc2CCN1C(=O)c1cc2ncc(Br)cn2n1 (stereo not drawn) [drawing 434, (6-Bromo-pyrazolo[1,5-a]pyrimidin-2-yl)-(7-fluoro-1-methyl-3,4-dihydro-1H-isoquinolin-2-yl)-methanone] |
| 56.5 nM | CC1c2cccc(F)c2CCN1C(=O)c1cc2ncc(Br)cn2n1 (stereo not drawn) [drawing 435, (6-Bromo-pyrazolo[1,5-a]pyrimidin-2-yl)-(5-fluoro-1-methyl-3,4-dihydro-1H-isoquinolin-2-yl)-methanone] |
| 66.3 nM | CC1c2ccc(F)cc2CCN1C(=O)c1cc2ncc(Cl)cn2n1 (stereo not drawn) [drawing 436, (6-Chloro-pyrazolo[1,5-a]pyrimidin-2-yl)-(6-fluoro-1-methyl-3,4-dihydro-1H-isoquinolin-2-yl)-methanone] |
| 101 nM | CC1CN(C(=O)c2cc3ncc(Cl)cn3n2)C(C)c2ccccc21 (stereo not drawn) [drawing 437, (6-Chloro-pyrazolo[1,5-a]pyrimidin-2-yl)-(1,4-dimethyl-3,4-dihydro-1H-isoquinolin-2-yl)-methanone] |
| 161 nM | CC1CN(C(=O)c2cc3ncc(Br)cn3n2)C(C)c2ccccc21 (stereo not drawn) [drawing 438, (6-Bromo-pyrazolo[1,5-a]pyrimidin-2-yl)-(1,4-dimethyl-3,4-dihydro-1H-isoquinolin-2-yl)-methanone] |
| 159 nM | COc1ccc2c(c1)CCN(C(=O)c1cc3ncc(Br)cn3n1)C2C (stereo not drawn) [drawing 439, (6-Bromo-pyrazolo[1,5-a]pyrimidin-2-yl)-(6-methoxy-1-methyl-3,4-dihydro-1H-isoquinolin-2-yl)-methanone] |
| 155 nM | COc1ccc2c(c1)CCN(C(=O)c1cc3ncc(Cl)cn3n1)C2C (stereo not drawn) [drawing 440, (6-Chloro-pyrazolo[1,5-a]pyrimidin-2-yl)-(6-methoxy-1-methyl-3,4-dihydro-1H-isoquinolin-2-yl)-methanone] |
| 178 nM | CC1c2cccc(Br)c2CCN1C(=O)c1cc2ncc(Cl)cn2n1 (stereo not drawn) [drawing 441, (5-Bromo-1-methyl-3,4-dihydro-1H-isoquinolin-2-yl)-(6-chloro-pyrazolo[1,5-a]pyrimidin-2-yl)-methanone] |
| 167 nM | O=C(c1cc2ncc(Cl)cn2n1)N1CCc2ncc(Br)cc2C1 [drawing 442, (3-Bromo-7,8-dihydro-5H-[1,6]naphthyridin-6-yl)-(6-chloro-pyrazolo[1,5-a]pyrrimidin-2-yl)-methanone] |

What follows are molecules tested against T2, mGluR5 receptors (Rattus norvegicus, UniProt P31424) (assay: Cytosolic calcium studies with astrocytes (astrocyte culture test, FLIPR)). Details: rat primary astrocytes; L-quisqualate (100 nM); read-out: mGluR5_FLIPRr_rpA IC50.
T2 construct: endogenous in cells; host or cells: primary astrocytes from neocortex of Sprague-Dawley rat pups
T2 sequence (P31424 21-1203): as the sequence (P31424 21-1203) above
Assay type: cell-based
Method: Primary astrocyte cultures are prepared from cortices of newborn rats as described by Booher and Sensenbrenner (1972, Neurobiology 2(3):97-105). Briefly, Sprague-Dawley rat pups (2-4 d old) are decapitated and neocortices are dissected, disintegrated with a nylon filter (pore size 80 μm) and carefully triturated. The cell suspension is plated on poly-D-lysine pre-coated flasks (Costar, Netherlands) and cultivated in Dulbecco's Modified Eagle's Medium (DMEM, Invitrogen, Germany) supplemented with 10% foetal calf serum (FCS, Sigma, Germany), 4 mM glutamine and 50 μg/ml gentamycin (both Biochrom, Germany) at 37° C. in a humidified atmosphere of 5% CO2/95% air for 7 d with exchanging the medium at day 2 and 6.
After 7 days in vitro (DIV), cells are shaken overnight at 250 rpm to remove oligodendrocytes and microglia. The next day, astrocytes are rinsed twice with CMF-PBS (calcium- and magnesium-free phosphate buffered saline, Biochrom, Germany), trypsinized and subplated on poly-D-lysine pre-coated 96-well plates (Greiner, Germany) at a density of 40,000 cells/well. 24 h after establishing the secondary culture the astrocytes are rinsed with PBS^++ (phosphate buffered saline, Biochrom, Germany), and fed with astrocyte-defined medium (ADM) consisting of DMEM containing 1×G^5-supplement (Invitrogen, Germany), 0.5 μg/ml heparan sulfate, and 1.5 μg/ml fibronectin (both Sigma, Germany) (Miller et al., (1993) Brain Res. 618(1):175-8). 3 d later the medium is exchanged and the cells incubated for another 2-3 d, so that at the time of experiments astrocytes are 14-15 DIV.
The increase of cytosolic calcium after stimulation with the mGluR5 agonist L-quisqualate is measured using a fluorometric imaging plate reader (FLIPR) and the Ca-Kit (both Molecular Devices). Prior to addition of agonist or antagonist the medium is aspirated and cells are loaded for 2 h at RT with 150 μl of loading buffer consisting of Ca-sensitive dye reconstituted in sodium chloride (123 mM), potassium chloride (5.4 mM), magnesium chloride (0.8 mM), calcium chloride (1.8 mM), D-glucose (15 mM), and HEPES (20 mM), pH 7.3. Subsequently, plates are transferred to FLIPR to detect calcium increase with the addition of L-quisqualate (100 nM) measured as relative fluorescence units (RFU). If antagonists are tested, these compounds are pre-incubated for 10 minutes at RT before addition of the respective agonist.
as §1, §2

| IC50 | SMILES |
| --- | --- |
| 43 nM | COc1cc2c(cc1O)CCN(C(=O)c1cc3ncc(Br)cn3n1)C2C (stereo not drawn) [drawing 443, 2-[(6-bromopyrazolo[1,5-a]pyrimidin-2-yl)carbonyl]-7-methoxy-1-methyl-1,2,3,4-tetrahydro-6-isoquinolinol] |
| 46 nM | CC1c2cc(F)ccc2CCN1C(=O)c1cc2ncc(Br)cn2n1 (stereo not drawn) [drawing 444, (6-Bromo-pyrazolo[1,5-a]pyrimidin-2-yl)-(7-fluoro-1-methyl-3,4-dihydro-1H-isoquinolin-2-yl)-methanone] |
| 17 nM | CC1c2cccc(F)c2CCN1C(=O)c1cc2ncc(Br)cn2n1 (stereo not drawn) [drawing 445, (6-Bromo-pyrazolo[1,5-a]pyrimidin-2-yl)-(5-fluoro-1-methyl-3,4-dihydro-1H-isoquinolin-2-yl)-methanone] |
| 47 nM | CC1c2ccc(F)cc2CCN1C(=O)c1cc2ncc(Cl)cn2n1 (stereo not drawn) [drawing 446, (6-Chloro-pyrazolo[1,5-a]pyrimidin-2-yl)-(6-fluoro-1-methyl-3,4-dihydro-1H-isoquinolin-2-yl)-methanone] |
| 64 nM | CC1CN(C(=O)c2cc3ncc(Cl)cn3n2)C(C)c2ccccc21 (stereo not drawn) [drawing 447, (6-Chloro-pyrazolo[1,5-a]pyrimidin-2-yl)-(1,4-dimethyl-3,4-dihydro-1H-isoquinolin-2-yl)-methanone] |
| 83 nM | CC1CN(C(=O)c2cc3ncc(Br)cn3n2)C(C)c2ccccc21 (stereo not drawn) [drawing 448, (6-Bromo-pyrazolo[1,5-a]pyrimidin-2-yl)-(1,4-dimethyl-3,4-dihydro-1H-isoquinolin-2-yl)-methanone] |
| 62 nM | COc1ccc2c(c1)CCN(C(=O)c1cc3ncc(Br)cn3n1)C2C (stereo not drawn) [drawing 449, (6-Bromo-pyrazolo[1,5-a]pyrimidin-2-yl)-(6-methoxy-1-methyl-3,4-dihydro-1H-isoquinolin-2-yl)-methanone] |
| 69 nM | COc1ccc2c(c1)CCN(C(=O)c1cc3ncc(Cl)cn3n1)C2C (stereo not drawn) [drawing 450, (6-Chloro-pyrazolo[1,5-a]pyrimidin-2-yl)-(6-methoxy-1-methyl-3,4-dihydro-1H-isoquinolin-2-yl)-methanone] |
| 65 nM | CC1c2cccc(Br)c2CCN1C(=O)c1cc2ncc(Cl)cn2n1 (stereo not drawn) [drawing 451, (5-Bromo-1-methyl-3,4-dihydro-1H-isoquinolin-2-yl)-(6-chloro-pyrazolo[1,5-a]pyrimidin-2-yl)-methanone] |
| 48 nM | O=C(c1cc2ncc(Cl)cn2n1)N1CCc2ncc(Br)cc2C1 [drawing 452, (3-Bromo-7,8-dihydro-5H-[1,6]naphthyridin-6-yl)-(6-chloro-pyrazolo[1,5-a]pyrimiddin-2-yl)-methanone] |
